Where a name gives a salt, the structure may show the parent alone.
Assays:
IL-10 knockout mice = assay: Effect on colitis in IL-10 knockout mice (histological score of large intestine); type: in vivo, B6.129P2-IL10<tm1Cgn>/J (IL-10 knockout) mice; conditions: 0.1 mg/kg orally once a day for 4 weeks; sum of proximal, middle and distal large intestine scores; average ± standard error
Description: B6.129P2-IL10^<tm1Cgn>/J (IL-10 knockout) mice (male, 5-6 week old) were obtained for the test. KRP-203 dissolved in distilled water was orally administered at a dose of 0.1 mg/kg once a day for 4 weeks, starting 8 weeks after the animals were obtained. One group was administered distilled water alone as a placebo. Following the administration period, the animals were dissected to remove large intestine, which was then fixed in formalin. Subsequently, tissue slices were prepared from the formalin-fixed large intestine and were stained with hematoxylin and eosin. The proximal, middle, and distal segments of the large intestine were then histologically scored according to the standard procedure (Berg D J, et al., Gastroenterology, 123: 1527-1542 (2002)). The scores for the three segments were added together to determine the histological scores for individual animals. The results are given in average ±standard error.

[1] = system: Dextran Sodium Sulfate-Induced Colitis in Mice; assay: Dextran sodium sulfate-induced colitis in mice; type: in vivo, BALB/C male mice; conditions: for Length of large intestine / myeloperoxidase activity in large intestine: DSS colitis, average ± standard error
Description: Colitis was induced in BALB/C male mice by allowing animals To drink a5% aqueous solution of dextran sodium sulfate (DSS) (average molecular weight=5000) for 7 days [Kitajima, S. et. al., Exp Anim, Vol. 49, No. 1: 9-15 (2000)]. KRP-203 dissolved in distilled water (at 0.01, 0.03 and 0.1 mg/kg) was orally administered once a day for 8 days, starting the day before the administration of DSS solution. One group was administered distilled water as a placebo.
8 days after the start of the DSS period, mice were anesthetized With diethylether and sacrificed by cervical dislocation. The large intestine (the segment from colon to anus) was removed from each animal. Because it is known that the ingestion of DSS solution causes colitis in mice that causes a decrease in the length of large intestine [Okayasu, I. et. al., Gastroenterology, Vol. 98: 694-702 (1990)], the length of the large intestine from the colon to anus was measured with a caliper. The large intestine was then cut open longitudinally to expose the lumen and the content was washed off with physiological saline. The specimens were assayed and compared for the activity of myeloperoxidase, a marker of inflammation in colitis [Grisham, M B. et. al., Methods Enzymol, Vol. 186: 729-742 (1990)]. […]
Tacrolimus was suspended in a 0.5% aqueous solution of carboxymethylcellulose sodium (CMC-Na) (at 3 mg/kg) and was administered once a day for 8 days, starting the day before the start of the DSS period. One group was administered 0.5% aqueous CMC-Na solution as a placebo. The increase in the myeloperoxidase activity in large intestine was suppressed by 37% in the 3 mg/kg group as compared to the placebo group.

[2] = 0.01 mg/kg orally once a day for 8 days
[3] = 0.03 mg/kg orally once a day for 8 days
[4] = 0.1 mg/kg orally once a day for 8 days

Compound	Histological Score (IL-10 knockout mice)	suppression of the increase in the myeloperoxidase activity in large intestine as compared to the placebo group ([1]; 0.01 mg/kg group)	Length of large intestine [1, 2]	myeloperoxidase activity in large intestine [1, 2]	suppression of the increase in the myeloperoxidase activity in large intestine as compared to the placebo group ([1]; 0.03 mg/kg group)	Length of large intestine [1, 3]	myeloperoxidase activity in large intestine [1, 3]	suppression of the increase in the myeloperoxidase activity in large intestine as compared to the placebo group ([1]; 0.1 mg/kg group)	Length of large intestine [1, 4]	myeloperoxidase activity in large intestine [1, 4]	suppression of the increase in the myeloperoxidase activity in large intestine as compared to the placebo group ([1]; 3 mg/kg group, suspended in 0.5% CMC-Na, once a day for 8 days)
NC(CO)(CO)CCc1ccc(Sc2cccc(OCc3ccccc3)c2)cc1Cl [KRP-203, 2-amino-2-[4-(3-benzyloxyphenylthio)-2-chlorophenyl]ethyl-1,3-propanediol hydrochloride]	0.3 ± 0.2	51%	67.4 ± 1.4 mm	55.8 ± 16.2 U/g protein	69%	72.7 ± 1.5 mm	36.8 ± 5.9 U/g protein	62%	71.4 ± 1.4 mm	44.4 ± 6.4 U/g protein	
C=CC[C@@H]1/C=C(\C)C[C@H](C)C[C@H](OC)[C@H]2O[C@@](O)(C(=O)C(=O)N3CCCC[C@H]3C(=O)O[C@H](/C(C)=C/[C@@H]3CC[C@@H](O)[C@H](OC)C3)[C@H](C)[C@@H](O)CC1=O)[C@H](C)C[C@@H]2OC [Tacrolimus, tacrolimus, reference compound]											37%
